The test system of series [1] is normal ICR mice. As to the kind of experiment: In vivo hypoglycemic activity of GLP-1 analogues, subcutaneous administration, oral glucose loading. Also noted: species or system mouse. Conditions: normal ICR mice, 1 μmol/kg s.c., glucose 2 g/kg by gavage. The method, then: FIG. 21. In vivo hypoglycemic activities of GLP-1 analogues by subcutaneous administration. Normal ICR mice were subcutaneously injected with GLP-1 and its analogues or corresponding volumes of saline (1.0 μmol/kg, n=10). After 30 min, glucose solution (2 g/kg) was administered by gavage, and blood was collected from the tail tip at 30, 60, and 120 min after glucose administration. Blood glucose was measured using glucose oxidase method, and blood glucose values and area under the blood glucose curve (AUC) were calculated at each timepoint.
The day before the experiment, all of the animals were fasted for 15-16 hours with water ad libitum. On the day of the experiment, the animals were randomly divided according to body weight (n=10). Firstly, the blood was collected from the tail tip at 0 hour, and then the animals were administered subcutaneously with GLP-1 analog (SEQ ID NOs: 194-201, 1 μmol/kg) or saline. After 30 minutes, the animals were administered by gavage with glucose solution (2 g/kg), and the blood was collected from the tail tip at 30, 60, and 120 minutes later. Blood glucose was measured using glucose oxidase method. The blood glucose and area under the blood glucose-time curve (AUC) were calculated.

Series [2] concerns the target chymotrypsin (Bos taurus, UniProt P00766). As to the kind of experiment: in vitro. The essentials:
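RP-HPLC peak area tracked intact peptide after 37 °C digestion with chymotrypsin (0.05 μg/μL solution, 5 min preincubation). Samples were withdrawn at 1.5-60.0 min and stopped with 10% TFA.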

In series [3] the target is T1, interaction of PCSK9-LDLR (Homo sapiens, UniProt Q8NBP7).
T1 construct: purchased MBL Company, Beijing, China CY-8150
T1 sequence (Q8NBP7 153-692): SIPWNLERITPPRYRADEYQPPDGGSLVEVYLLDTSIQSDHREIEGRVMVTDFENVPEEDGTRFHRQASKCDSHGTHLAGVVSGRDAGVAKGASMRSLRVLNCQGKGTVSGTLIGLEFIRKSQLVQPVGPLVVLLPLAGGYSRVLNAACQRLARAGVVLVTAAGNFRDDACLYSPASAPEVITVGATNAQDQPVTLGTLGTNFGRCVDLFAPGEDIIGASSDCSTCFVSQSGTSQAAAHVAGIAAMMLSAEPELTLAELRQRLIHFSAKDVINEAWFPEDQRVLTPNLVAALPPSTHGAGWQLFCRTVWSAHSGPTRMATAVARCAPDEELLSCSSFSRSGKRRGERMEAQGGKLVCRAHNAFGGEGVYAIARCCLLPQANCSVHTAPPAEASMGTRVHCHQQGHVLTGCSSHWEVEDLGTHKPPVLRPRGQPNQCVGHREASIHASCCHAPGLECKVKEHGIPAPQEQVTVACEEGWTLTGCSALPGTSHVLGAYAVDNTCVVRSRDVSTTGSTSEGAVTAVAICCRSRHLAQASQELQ
T1 sequence (Q8NBP7 31-152 partner limits assumed): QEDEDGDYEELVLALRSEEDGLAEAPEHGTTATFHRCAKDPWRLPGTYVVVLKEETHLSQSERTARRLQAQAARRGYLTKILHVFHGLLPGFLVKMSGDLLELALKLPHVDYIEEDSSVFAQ
Put plainly: PCSK9-LDLR in vitro binding assay (inhibitory rate). Conditions: sample 50 μM, PCSK9 75 ng/mL. The method, then:
Polypeptide PCSK9_1-14 (SEQ ID NOs: 210-223) is dissolved in pure water or DMSO. 85 μL reaction buffer, 5 μL 1 mM polypeptide sample and 10 μL 750 ng/mL PCSK9 protein was pre-incubated at room temperature for 20 minutes before being added to a 96 well plate. The OD450/540 nm value was measured according to the instructions of the PCSK9-LDLR in Vitro Binding Assay Kit (CY-8150, MBL Company, Beijing, China). Solvent control: replace polypeptide with 5 μL solvent. In 100 μL reaction system, the final concentration of the polypeptide and PCSK9 is 50 μM and 75 ng/mL, respectively.
Inhibition rate of polypeptide (%)=(OD450/540 nm(solvent control)−OD450/540 nm (sample))/OD450/540 nm(solvent control)×100

Series [4] relates to P407-induced hyperlipidemia mice. As to the kind of experiment: Subcutaneous injection of PCSK9 inhibitory peptide, serum total cholesterol in P407-induced hyperlipidemia mice. Format: in vivo, mouse. The protocol: The experimental peptide sample was prepared using PEG400 with a final concentration of […], and the final concentration of PEG400 is 20% (w/v). Normal ICR mice were fasted overnight with water ad libitum. The next day, all of the mice were randomly divided into model control group (Con) and polypeptide administration group (2 μmol/kg) according to body weight. Then, all of the mice were intraperitoneally injected with P407 (500 mg/kg) and fed with feed 2 hours later. Six mice were taken as a normal control group (Nor). After 24 hours, the mice in Con were subcutaneously injected with saline containing 20% PEG400, and the mice in the treatment group were given peptides. Then, the blood was taken at different time points after administration to determine the serum total cholesterol (TC) level. In consideration of the complexity of factors affecting serum LDL-C levels, especially the differences between single and long-term administration, the in vivo activity of PCSK9 inhibitory peptide is mainly observed for changes in serum TC levels.

In series [5] the target is elastase (Sus scrofa, UniProt P00772). Put plainly: in vitro. The essentials: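 Peptides and elastase (0.5 μg/μL solution) each pre-warmed 5 min at 37° C, then mixed; aliquots taken at 1.5 to 60.0 min and quenched with 10% TFA. Remaining intact peptide quantified as RP-HPLC peak area.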
elastase, sequence (P00772 27-266): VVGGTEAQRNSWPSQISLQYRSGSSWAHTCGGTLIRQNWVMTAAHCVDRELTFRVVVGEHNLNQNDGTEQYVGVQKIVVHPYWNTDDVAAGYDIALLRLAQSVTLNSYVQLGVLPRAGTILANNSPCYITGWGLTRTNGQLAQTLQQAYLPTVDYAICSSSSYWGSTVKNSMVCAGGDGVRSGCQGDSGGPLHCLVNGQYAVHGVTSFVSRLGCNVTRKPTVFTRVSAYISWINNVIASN
Series [6] addresses T2, trypsin (Bos taurus, UniProt P00760).
T2 sequence (P00760 24-246): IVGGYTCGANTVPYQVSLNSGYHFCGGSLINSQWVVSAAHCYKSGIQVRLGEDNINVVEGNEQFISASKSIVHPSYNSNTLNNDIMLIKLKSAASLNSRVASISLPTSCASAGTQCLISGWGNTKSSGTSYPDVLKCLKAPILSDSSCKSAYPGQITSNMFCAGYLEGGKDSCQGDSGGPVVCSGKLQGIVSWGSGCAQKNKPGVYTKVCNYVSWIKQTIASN
As to the kind of experiment: in vitro. The essentials: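 Remaining RP-HPLC peak area tracks undigested peptide over time. Samples were quenched with 10% TFA at time points between 1.5 and 60 min during 37 °C digestion. Trypsin was added from a 0.05 μg/μL solution after 5 min of thermal equilibration.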

Setting [7] is: isolated enzyme chymotrypsin, pH 7.8, Residual peak area (%)/chymotrypsin.
Setting [8] is: isolated enzyme elastase, pH 8, Residual peak area (%)/elastase.

Converted amounts (≈) assume the structure as drawn. Bridge positions count the residues as written; N and C are the ends. Ends that are not written are not given here. PEG = not defined here

The record followed here is patent US20230416329A1, “A PEPTIDE WITH DISULFIDE BONDS AND INHIBITORY ACTIVITY AGAINST SERINE PROTEASES, DERIVED HYBRID PEPTIDES THEREOF, AND USES THEREOF” (INSTITUTE OF MATERIA MEDICA , CHINESE ACADEMY OF MEDICAL …, priority 2020, published 2023).

Turning to “Ac-Cys-Gly-Arg-Ala-Thr-Lys-Ser-Ile-Pro-Pro-Ile-Cys-Phe-Gly-Gly-Ile-Pro-Ile-Gly-Gly-His-Ala-Glu-Gly-Thr-Phe-Thr-Ser-Asp-Val-Ser-Ser-Tyr-Leu-Glu-Gly-Gln-Ala-Ala-Lys-Glu-Phe-Ile-Ala-Trp-Leu-Val-Lys-Gly-Arg-Gly-Gly-Lys-NH2 (Ac-CGRATKSIPPICFGGIPIGGHAEGTFTSDVSSYLEGQAAKEFIAWLVKGRGGK-NH2; disulfide 1-12 (inferred)) [Acetylated and Amidated SEQ ID NO: 198]”, the “hypoglycemic activity, subcutaneous injection (in words)” value (“hypoglycemic activity” below) in series [1] is listed as “did not show any significant differences in their hypoglycemic activity compared to the unmodified molecules”.

As for “Ac-Gly-Ile-Pro-Ile-Gly-Gly-His-Ala-Glu-Gly-Thr-Phe-Thr-Ser-Asp-Val-Ser-Ser-Tyr-Leu-Glu-Gly-Gln-Ala-Ala-Lys-Glu-Phe-Ile-Ala-Trp-Leu-Val-Lys-Gly-Arg-Gly-Gly-Lys-Gly-Cys-Gly-Arg-Ala-Thr-Lys-Ser-Ile-Pro-Pro-Ile-Cys-Phe-NH2 (Ac-GIPIGGHAEGTFTSDVSSYLEGQAAKEFIAWLVKGRGGKGCGRATKSIPPICF-NH2; disulfide 41-52 (inferred)) [Acetylated and Amidated SEQ ID NO: 200]”, the “hypoglycemic activity” value in series [1] is reported as “did not show any significant differences in their hypoglycemic activity compared to the unmodified molecules”.

Turning to “Ac-Gly-Ile-Pro-Ile-Gly-Gly-His-Ala-Glu-Gly-Thr-Phe-Thr-Ser-Asp-Val-Ser-Ser-Tyr-Leu-Glu-Gly-Gln-Ala-Ala-Lys-Glu-Phe-Ile-Ala-Trp-Leu-Val-Lys-Gly-Arg-Gly-Gly-Lys-Gly-Arg-Cys-Thr-Lys-Ser-Ile-Pro-Pro-Ile-Cys-Phe-Pro-NH2 (Ac-GIPIGGHAEGTFTSDVSSYLEGQAAKEFIAWLVKGRGGKGRCTKSIPPICFP-NH2; disulfide 42-50 (inferred)) [Acetylated and Amidated SEQ ID NO: 196]”, in series [1], the “hypoglycemic activity” value was “did not show any significant differences in their hypoglycemic activity compared to the unmodified molecules”.

As to “PEG-Phe-Cys-Thr-Tyr-Ser-Ile-Pro-Pro-Gln-Cys-Tyr-Gly-Gly-Ile-Pro-Ile-Gly-Gly-His-Ala-Glu-Gly-Thr-Phe-Thr-Ser-Asp-Val-Ser-Ser-Tyr-Leu-Glu-Gly-Gln-Ala-Ala-Lys-Glu-Phe-Ile-Ala-Trp-Leu-Val-Lys-Gly-Arg-Gly-Gly-Lys ({PEG}-FCTYSIPPQCYGGIPIGGHAEGTFTSDVSSYLEGQAAKEFIAWLVKGRGGK; disulfide 2-10 (inferred); reading uncertain; also: printed as PEG-Phe-Cys-Thr-Tyr-Ser-Ile-Pro-Pro-Gln-Cys-Tyr-Gly-Gly-Ile-Pro-Ile-Gly-Gly-His-Ala-Glu-Gly-Thr-Phe-Thr-Ser-Asp-Val-Ser-Ser-Tyr-Leu-Glu-Gly-Gln-Ala-Ala-Lys-Glu-Phe-Ile-Ala-Trp-Leu-Val-Lys-Gly-Arg-Gly-Gly-Lys) [N-Terminal PEGylated SEQ ID NO: 204]”, the “hypoglycemic activity” value in series [1] is “did not show any significant differences in their hypoglycemic activity compared to the unmodified molecules”.

Consider “Ac-Gly-Arg-Cys-Thr-Lys-Ser-Ile-Pro-Pro-Ile-Cys-Phe-Pro-Gly-Gly-Ile-Pro-Ile-Gly-Gly-His-Ala-Glu-Gly-Thr-Phe-Thr-Ser-Asp-Val-Ser-Ser-Tyr-Leu-Glu-Gly-Gln-Ala-Ala-Lys-Glu-Phe-Ile-Ala-Trp-Leu-Val-Lys-Gly-Arg-Gly-Gly-Lys-NH2 (Ac-GRCTKSIPPICFPGGIPIGGHAEGTFTSDVSSYLEGQAAKEFIAWLVKGRGGK-NH2; disulfide 3-11 (inferred)) [Acetylated and Amidated SEQ ID NO: 194]”, for which, in series [1], the “hypoglycemic activity” value was “did not show any significant differences in their hypoglycemic activity compared to the unmodified molecules”.

Consider `CC(C)C[C@H](NC(=O)[C@H](Cc1ccc(O)cc1)NC(=O)[C@H](CCC(=O)O)NC(=O)[C@H](CCC(=O)O)NC(=O)[C@H](Cc1c[nH]c2ccccc12)NC(=O)[C@H](CO)NC(=O)[C@@H](NC(=O)[C@H](Cc1ccccc1)NC(=O)[C@@H](NC(=O)[C@@H](N)[C@@H](C)O)C(C)C)[C@@H](C)O)C(=O)N[C@@H](CC(=O)O)C(=O)N[C@@H](Cc1c[nH]c2ccccc12)C(=O)N[C@H](C(=O)O)C(C)C` [PCSK9_1, reference compound], for which, in series [2], the “Residual peak area (%)/chymotrypsin” value was 100.0 ± 0.0%; the “stability towards chymotrypsin hydrolysis (in words)” value is “easily degraded by chymotrypsin and elastase”. In series [2] (setting [7]), this compound showed a share remaining at 0.025 h, 60 μM of 82.3 ± 5%; an amount remaining at 0.05 h, 60 μM of 80.7 ± 3.3%; a fraction remaining at 0.075 h, 60 μM of 80.1 ± 2%; a share remaining at 0.1 h, 60 μM of 79.1 ± 5.6%. In series [2] (setting [7]), this compound showed a fraction remaining at 0.15 h, 60 μM of 75.5 ± 1.6%; an amount remaining at 0.25 h, 60 μM of 71.2 ± 2.4%; a share remaining at 0.5 h, 60 μM of 62.7 ± 2.6%; an amount remaining at 1 h, 60 μM of 47.7 ± 2%. Besides, in series [3], at 50 µM the inhibition was 26 ± 10%. Further, the “serum total cholesterol (TC) level after subcutaneous injection (in words)” value in series [4] (2 μmol/kg single s.c., P407-induced hyperlipidemia mice) is “little effect on lowering total cholesterol”. In addition, in series [4] (serum, subcutaneous 2 μmol/kg, 30 min after administration, mean ± sd), the “TC 30 min” value came out at 3925 ± 1330 µg/mL (≈ 2340 µM). The “TC 60 min” value in series [4] (serum, subcutaneous 2 μmol/kg, 60 min after administration, mean ± sd) was determined as 3350 ± 1117 µg/mL (≈ 2000 µM). In series [4] (serum, subcutaneous 2 μmol/kg, 90 min after administration, mean ± sd), the “TC 90 min” value stood at 3832 ± 1259 µg/mL (≈ 2290 µM). The “TC 120 min” value in series [4] (serum, subcutaneous 2 μmol/kg, 120 min after administration, mean ± sd) is 370.4 ± 122.3 mg/dL. Moreover, in series [5], the “Residual peak area (%)/elastase” value was determined as 100.0 ± 0.0%; the “stability towards elastase hydrolysis (in words)” value is “easily degraded by chymotrypsin and elastase”. Also, in series [5] (setting [8]), the fraction remaining at 0.025 h, 60 μM amounted to 95.4 ± 0.9%; the amount remaining at 0.05 h, 60 μM worked out at 90.6 ± 2.4%; the share remaining at 0.075 h, 60 μM was 83.3 ± 1.8%; the amount remaining at 0.1 h, 60 μM was found to be 85.5 ± 2.7%. In series [5] (setting [8]), the share remaining at 0.15 h, 60 μM turned out to be 79.6 ± 0.8%; the share remaining at 0.25 h, 60 μM is 66.8 ± 0.8%; the amount remaining at 0.5 h, 60 μM is 52.9 ± 1.5%; the share remaining at 1 h, 60 μM amounted to 28.9 ± 0.7%. For the same compound, the “stability towards trypsin hydrolysis (in words)” value in series [6] is on record as “stable towards trypsin”.

As to “PEG-Gly-Ile-Pro-Ile-Gly-Gly-His-Ala-Glu-Gly-Thr-Phe-Thr-Ser-Asp-Val-Ser-Ser-Tyr-Leu-Glu-Gly-Gln-Ala-Ala-Lys-Glu-Phe-Ile-Ala-Trp-Leu-Val-Lys-Gly-Arg-Gly-Gly-Lys-Gly-Cys-Gly-Arg-Ala-Thr-Lys-Ser-Ile-Pro-Pro-Ile-Cys-Phe ({PEG}-GIPIGGHAEGTFTSDVSSYLEGQAAKEFIAWLVKGRGGKGCGRATKSIPPICF; disulfide 41-52 (inferred); reading uncertain; also: printed as PEG-Gly-Ile-Pro-Ile-Gly-Gly-His-Ala-Glu-Gly-Thr-Phe-Thr-Ser-Asp-Val-Ser-Ser-Tyr-Leu-Glu-Gly-Gln-Ala-Ala-Lys-Glu-Phe-Ile-Ala-Trp-Leu-Val-Lys-Gly-Arg-Gly-Gly-Lys-Gly-Cys-Gly-Arg-Ala-Thr-Lys-Ser-Ile-Pro-Pro-Ile-Cys-Phe) [N-Terminal PEGylated SEQ ID NO: 200]”, the “hypoglycemic activity” value in series [1] is listed as “did not show any significant differences in their hypoglycemic activity compared to the unmodified molecules”.

One may read the fraction remaining as the share of the starting amount still present when the sample was taken. A low value points to more turnover. A word on the inhibition: it is the percentage by which the read-out fell short of the control. A high value points to a response far below the control.
